What all share (experiment): DTP human tumour cell line panel, 48 h
Assay [1] relates to SF-295 CNS.
Assay [2] relates to U251 CNS.
In assay [3] the test system is NCI/ADR-RES ovarian.
Assay [4] relates to HCT-15 colon.
In assay [5] the test system is OVCAR-4 ovarian.
For assay [6], the system named is HCC-2998 colon.
Assay [7] has as its system UACC-257 melanoma.
Assay [8] concerns OVCAR-3 ovarian.
Assay [9] concerns NCI-H226 lung.
The subject of assay [10] is SK-MEL-28 melanoma.

The structures appear in SMILES notation.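 Assay format: 96-well plates, 48-hour exposure. Abbreviation: GI50, concentration required for 50% inhibition of growth. The concentration for full growth arrest is given as TGI.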 Where only a bound is given, the exact number is not on record here.

The values that follow come from PubChem BioAssay (NCI).

By TGI is commonly meant the concentration at which net growth stops. As for `O=C(O)/C=C\C(=O)Nc1ccc2c(c1)-c1ccccc1C2`, the TGI in [1], in assay [2], in assay [3], in assay [4], in assay [5] and in assay [6] was > 100 µM in each case. The TGI in [7] was > 100 µM; in assay [8] it was > 100 µM; in assay [9], 78.2 µM; in [10], > 100 µM.

For orientation: GI50 means the concentration giving 50% growth inhibition. Turning to `COC(=O)[C@@H](C)C[C@H](Cc1ccccc1)NC(=O)c1nc([C@@H](C[C@H](C(C)C)N(C)C(=O)[C@@H](NC(=O)[C@H]2C[C@H](O)CCN2C)C(C)C)OC(C)=O)sc1C(C)C`, the GI50 is 0.0164 µM in assay [1]; 0.0075 µM in assay [2]; 2.29 µM in [3]; 0.284 µM in assay [4]; 0.0493 µM in assay [5]; 0.00353 µM in [6]. The GI50 in assay [7] was 5.89 µM; in assay [8], 0.00148 µM; in assay [9], 0.0257 µM; in [10], 0.0191 µM. Besides, the TGI in [1] is > 11.1 µM; in assay [2], > 11.1 µM; in [3], > 11.1 µM; in assay [4] it was > 11.1 µM; in assay [5] it was > 11.1 µM; in assay [6], 4.52 µM. In addition, the TGI in [7] and in assay [10] was > 11.1 µM each time.

For the molecule `O=C(CCCc1ccc(N(CCCl)CCCl)cc1)NCc1ccccc1`, the GI50 was 3.23 µM in [1]; 6.6 µM in assay [2]; 6.88 µM in assay [3]; 13.3 µM in assay [4]; 12.5 µM in [5]; 15.4 µM in assay [6]. Moreover, the GI50 in assay [7] was 12.1 µM; in assay [8], 13.7 µM; in assay [9] it was 14.6 µM; in assay [10], 17.2 µM. In addition, the total growth inhibition concentration (TGI) in assay [1] was 28.6 µM; in assay [2], 43.4 µM; in assay [3], 60.7 µM; in assay [4] it was > 100 µM; in assay [5] it was 35.1 µM; in assay [6], 36.4 µM. The TGI in assay [7] is 55.5 µM; in assay [8] it was 38.1 µM; in assay [9], 47.2 µM; in assay [10], > 100 µM.

On to `COC(=O)N[C@H]1CCc2cc(OC)c(OC)c(OC)c2-c2ccc(SC)c(=O)cc21`, for which the GI50 in assay [1] is < 0.01 µM; in assay [2] it was < 0.01 µM; in assay [3] it was 0.0247 µM; in [4] it was < 0.01 µM; in [5] it was 0.0205 µM; in assay [6], < 0.01 µM. Also, the GI50 in [7] was 50.7 µM; in assay [8], < 0.01 µM; in assay [9] it was < 0.01 µM; in assay [10], > 100 µM. Also, the TGI in [1] is 27.1 µM; in assay [2], > 43.5 µM; in [3], > 100 µM; in assay [4], > 47.3 µM; in assay [5], > 100 µM; in [6], > 100 µM. Moreover, the TGI in assay [7] and in assay [10] was > 100 µM throughout.

For the molecule `O=P1(NCCCl)OCCCN1CCCl` (stereo not given), the TGI in assay [1] came out at 429 µM; in [2], 431 µM; in [3], 450 µM; in assay [4], 429 µM; in [5], 447 µM; in [6], 427 µM. Moreover, the TGI is 421 µM in assay [7], 422 µM in [8], 425 µM in assay [9] and 439 µM in [10].

On to `CC(=O)OCC1C(=O)OCC1C(=O)N1Cc2cc3ccccc3nc2C1` (stereo not given), for which the TGI in assay [1] was 29.9 µM; in [2], 24.9 µM; in assay [3] it was 7.56 µM; in assay [4], 6.99 µM; in [5], 4.89 µM; in assay [6] it was 22.9 µM. Moreover, the TGI turned out to be 8.64 µM in assay [7], 6.14 µM in assay [8], 18.8 µM in [9] and 7.07 µM in [10].

In the case of `Nc1c(C(=O)Nc2cccc(Cl)c2)sc2nc3c(cc12)C(=O)CCC3`, the GI50 in [1] is 0.243 µM; in assay [2] it was 0.599 µM; in assay [3], 0.466 µM; in assay [4], 0.411 µM; in assay [5] it was 13.3 µM; in assay [6], 0.849 µM. The GI50 is > 100 µM in assay [7], 0.305 µM in [8], 11.1 µM in assay [9] and 0.567 µM in assay [10]. In addition, the TGI in [2] was > 60.2 µM; in [3], > 100 µM; in assay [4] it was > 100 µM; in [5] it was > 100 µM; in [6], > 100 µM; in assay [7], > 100 µM. In addition, the TGI in assay [8], in assay [9] and in assay [10] was > 100 µM throughout.

Regarding `O=C1C=C(Nc2ccccc2)c2ccccc2C1=O`, the GI50 in assay [1] was 1.9 µM; in assay [2], 1.8 µM; in [3], 2.48 µM; in assay [4] it was 1.77 µM; in [5], 1.68 µM; in assay [6], 2.02 µM. The GI50 in assay [7] is 1.79 µM; in [8], 1.96 µM; in [9] it was 1.93 µM; in assay [10], 2.13 µM. The TGI in [1] came to 3.5 µM; in assay [2], 4.6 µM; in assay [3], 8.82 µM; in assay [4], 3.98 µM; in assay [5] it was 3.53 µM; in [6], 4.62 µM. The TGI came out at 3.25 µM in assay [7], 5.27 µM in assay [8], 4.21 µM in assay [9] and 4.46 µM in assay [10].

With `Sc1cccc2cccnc12`, the GI50 is 0.645 µM in assay [1]; 0.598 µM in assay [2]; 0.955 µM in assay [3]; 0.427 µM in assay [4]; 0.445 µM in [5]; 3.49 µM in [6]. The GI50 in assay [7] was 1.37 µM; in assay [8], 0.467 µM; in assay [9] it was 1.61 µM; in [10], 1.15 µM. The total growth inhibition concentration (TGI) in [1] worked out at 12.8 µM; in [2], 13.9 µM; in assay [3], 9.21 µM; in assay [4], 14.4 µM; in assay [5], 12.7 µM; in assay [6], 16.2 µM. Further, the TGI in assay [7] was 12.3 µM; in [8], 8.01 µM; in assay [9] it was 8.83 µM; in assay [10], 16.2 µM.
